Reference: ChEMBL document CHEMBL1201862, “PubChem BioAssay data set” (2004)
Calls of active or inactive are those of the source.

Tests used:
[1] = system: Streptococcus sp. 'group A'; test: Streptococcus pyogenes SK(-)GAS viability under kanamycin – luminescence, BacTiterGlo, confirmation, counter-screen for streptokinase expression inhibitor project, dose response (AID 1900); assay type: functional, organism-based
[2] = system: A-375; test: proliferation inhibition in MITF-low A375 cells – cell-based, cherry-pick samples, set 2, counter-screen for MITF modulator project, dose response (AID 540335); assay type: functional; conditions: Homo sapiens
[3] = target: T1, Streptokinase A (Streptococcus pyogenes serotype M1, UniProt P10520); test: viability-normalized secreted streptokinase activity reduction – plasminogen activation absorbance, OD405, dose response (AID 1914); assay type: functional, Streptococcus pyogenes M1 GAS;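 further: secreted streptokinase activity via plasminogen activation per viability signal from cell pellet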
T1 sequence (P10520 whole entry): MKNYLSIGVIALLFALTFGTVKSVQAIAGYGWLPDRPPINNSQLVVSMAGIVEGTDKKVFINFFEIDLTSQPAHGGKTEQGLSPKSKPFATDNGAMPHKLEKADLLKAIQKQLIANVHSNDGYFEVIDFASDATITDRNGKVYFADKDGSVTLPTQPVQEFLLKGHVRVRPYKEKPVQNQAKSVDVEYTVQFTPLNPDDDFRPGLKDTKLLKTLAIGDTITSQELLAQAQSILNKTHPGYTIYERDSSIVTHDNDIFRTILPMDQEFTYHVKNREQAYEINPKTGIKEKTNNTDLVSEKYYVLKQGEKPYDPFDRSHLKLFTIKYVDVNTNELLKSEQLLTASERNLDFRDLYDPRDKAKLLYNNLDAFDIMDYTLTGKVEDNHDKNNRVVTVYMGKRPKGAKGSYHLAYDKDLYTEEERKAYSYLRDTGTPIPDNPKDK

[4] = system: Streptococcus; test: GAS UMAA2166 growth inhibition – luminescence, BacTiterGlo, counter-screen for streptokinase expression inhibitor project, dose response (AID 1915); assay type: functional, organism-based;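 further: potency for reduction of bacterial viability or growth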
[5] = system: A-375; test: MITF: Counter assay: A375 proliferation Measured in Cell-Based System Using Plate Reader - 2084-03_Inhibitor_Dose_DryPowder_Activity. [Related pubchem assays (depositor defined):AID488944]; assay type: functional; conditions: Homo sapiens
[6] = NIH3T3 cell viability loss – ATP luminescence, mouse fibroblasts, counter-screen, dose response (AID 2010); assay type: functional, cell-based;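 further: cells exposed to compound for about 90 hours before reading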
[7] = Luminescence Cell-Based Dose Retest to Confirm Inhibitors of Cancer Stem Cells. [Related pubchem assays (depositor defined):AID2717, AID2721]; assay type: functional; conditions: Homo sapiens
[8] = target: T2, Microphthalmia-associated transcription factor (Homo sapiens, UniProt O75030); test: reducers of TRPM1 reporter luminescence, concentration series – cell-based, SK-MEL-5, cherry-picked, set 3, MITF inhibitor project, dose response (AID 493073); assay type: functional;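 further: SK-MEL-5 melanoma cells with luciferase driven by the MITF target TRPM1 promoter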
T2 sequence (O75030 whole entry): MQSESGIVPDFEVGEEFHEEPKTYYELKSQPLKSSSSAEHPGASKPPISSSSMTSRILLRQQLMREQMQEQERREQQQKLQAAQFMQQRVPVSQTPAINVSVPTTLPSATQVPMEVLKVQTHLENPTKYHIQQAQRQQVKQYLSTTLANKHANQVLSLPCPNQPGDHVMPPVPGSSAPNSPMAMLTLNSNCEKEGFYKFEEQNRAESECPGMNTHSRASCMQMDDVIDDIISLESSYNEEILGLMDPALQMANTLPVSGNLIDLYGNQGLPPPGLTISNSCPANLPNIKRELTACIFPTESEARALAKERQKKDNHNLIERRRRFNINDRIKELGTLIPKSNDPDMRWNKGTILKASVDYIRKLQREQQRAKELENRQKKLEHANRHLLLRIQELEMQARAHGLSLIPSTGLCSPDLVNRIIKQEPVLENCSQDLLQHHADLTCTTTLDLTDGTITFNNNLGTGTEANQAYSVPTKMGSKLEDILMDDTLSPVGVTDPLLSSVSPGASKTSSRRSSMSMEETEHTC

[9] = Trypanosoma cruzi growth suppression in host cells – NIH3T3 host cells, beta-gal luminescence, confirmation (AID 2044); assay type: functional, cell-based;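 further: intracellular parasites grown in NIH/3T3 mouse fibroblasts as host cells; luminescent beta-galactosidase reporter signal from transgenic T. cruzi replicating inside host cells; inhibitors lower the luminescence signal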
[10] = target: Photoreceptor-specific nuclear receptor (Homo sapiens, UniProt Q9Y5X4); test: ligands suppressing NR2E3 nuclear receptor activity – biochemical, TR-FRET, dose response (AID 463256); assay type: functional
[11] = target: T3, Small ubiquitin-related modifier 1 (Homo sapiens, UniProt P63165); test: SUMO1 protein interaction blockers, potency – biochemical, fluorescence polarization, uHTS hits, dose response (AID 624382); assay type: functional; conditions: read-out: IC50_Mean
[12] = target: Beta-adrenergic receptor kinase 1 (Homo sapiens, UniProt P25098); test: blockers of aptamer binding to GRK2 – biochemical, flow cytometry beads, FAM-aptamer, powder set 1, dose response (AID 588720)
[13] = target: T3, Small ubiquitin-related modifier 1; test: SUMO1 protein-protein binding blockers, potency – biochemical, FRET, dose response (AID 624383); assay type: functional; conditions: read-out: IC50_Mean
[14] = target: Peroxisome proliferator-activated receptor gamma/Nuclear receptor corepressor 2 (Homo sapiens, UniProt P37231+Q9Y618); test: Counterscreen for NR2E3 inverse agonists: TR-FRET-based biochemical high throughput dose response assay to identify inverse agonists of the interaction between peroxisome proliferator-activated receptor gamma (PPARg) and nuclear receptor co-repressor 2 (NCOR2).; assay type: functional
[15] = target: T4, Hexokinase-1 (Homo sapiens, UniProt P19367); test: hexokinase 1 activity inhibitors, potency – biochemical, set 2, resazurin fluorescence coupled readout, selectivity assay for HKDC1 inhibitor project, SAR follow-up (AID 588356); assay type: functional
T4 sequence (P19367 whole entry): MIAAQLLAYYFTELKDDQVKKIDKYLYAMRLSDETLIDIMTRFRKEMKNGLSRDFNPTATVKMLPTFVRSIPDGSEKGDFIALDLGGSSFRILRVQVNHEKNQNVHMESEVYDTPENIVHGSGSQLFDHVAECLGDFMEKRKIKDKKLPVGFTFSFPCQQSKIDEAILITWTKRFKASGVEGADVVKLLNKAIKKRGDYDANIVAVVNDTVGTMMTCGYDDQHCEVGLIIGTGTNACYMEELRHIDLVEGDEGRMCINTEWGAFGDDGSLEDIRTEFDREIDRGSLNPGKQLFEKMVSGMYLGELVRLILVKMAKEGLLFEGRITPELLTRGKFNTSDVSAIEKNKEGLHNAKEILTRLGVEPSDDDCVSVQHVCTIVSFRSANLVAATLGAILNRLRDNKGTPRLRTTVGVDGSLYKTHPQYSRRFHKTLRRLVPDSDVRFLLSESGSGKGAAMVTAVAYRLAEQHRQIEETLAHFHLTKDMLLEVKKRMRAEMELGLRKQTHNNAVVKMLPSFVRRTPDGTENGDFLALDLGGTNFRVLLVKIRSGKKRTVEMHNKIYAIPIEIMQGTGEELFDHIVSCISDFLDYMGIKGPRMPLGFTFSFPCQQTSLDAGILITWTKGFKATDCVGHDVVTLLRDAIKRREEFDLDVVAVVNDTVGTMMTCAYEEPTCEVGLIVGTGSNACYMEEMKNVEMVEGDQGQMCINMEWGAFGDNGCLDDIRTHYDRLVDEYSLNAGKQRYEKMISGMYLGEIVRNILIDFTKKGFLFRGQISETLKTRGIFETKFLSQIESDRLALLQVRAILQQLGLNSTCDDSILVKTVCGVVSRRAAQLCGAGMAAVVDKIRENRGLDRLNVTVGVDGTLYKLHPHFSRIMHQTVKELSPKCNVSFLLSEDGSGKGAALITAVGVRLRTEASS

[16] = target: T5, Hexokinase HKDC1 (Homo sapiens, UniProt Q2TB90); test: analog inhibition of human HKDC1 activity – biochemical, set 2, SAR follow-up (AID 588355); assay type: functional
T5 sequence (Q2TB90 whole entry): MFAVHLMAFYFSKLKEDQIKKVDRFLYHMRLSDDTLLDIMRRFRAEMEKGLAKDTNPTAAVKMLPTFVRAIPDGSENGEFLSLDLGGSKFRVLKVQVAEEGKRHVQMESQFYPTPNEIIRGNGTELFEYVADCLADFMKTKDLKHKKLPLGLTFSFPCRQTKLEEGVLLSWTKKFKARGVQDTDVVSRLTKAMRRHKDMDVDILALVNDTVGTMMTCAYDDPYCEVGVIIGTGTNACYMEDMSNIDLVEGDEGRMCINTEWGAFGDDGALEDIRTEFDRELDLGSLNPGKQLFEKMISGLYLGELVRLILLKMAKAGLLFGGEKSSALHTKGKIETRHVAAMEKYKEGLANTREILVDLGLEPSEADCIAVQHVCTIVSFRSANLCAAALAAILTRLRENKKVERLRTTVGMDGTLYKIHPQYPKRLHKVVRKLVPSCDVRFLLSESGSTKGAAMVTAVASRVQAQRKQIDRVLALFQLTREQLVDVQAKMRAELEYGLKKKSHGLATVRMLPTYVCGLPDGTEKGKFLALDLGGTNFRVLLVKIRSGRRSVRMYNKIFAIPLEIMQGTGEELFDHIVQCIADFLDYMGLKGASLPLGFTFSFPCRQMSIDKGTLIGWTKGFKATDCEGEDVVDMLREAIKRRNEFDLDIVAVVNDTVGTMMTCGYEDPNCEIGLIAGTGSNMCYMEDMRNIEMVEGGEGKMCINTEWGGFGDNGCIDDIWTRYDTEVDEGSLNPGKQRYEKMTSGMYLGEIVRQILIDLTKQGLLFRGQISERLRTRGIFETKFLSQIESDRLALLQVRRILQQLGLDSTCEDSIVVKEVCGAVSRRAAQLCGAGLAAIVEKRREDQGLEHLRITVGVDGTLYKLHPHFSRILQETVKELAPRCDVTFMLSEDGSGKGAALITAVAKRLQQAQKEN

T3 sequence (P63165 whole entry): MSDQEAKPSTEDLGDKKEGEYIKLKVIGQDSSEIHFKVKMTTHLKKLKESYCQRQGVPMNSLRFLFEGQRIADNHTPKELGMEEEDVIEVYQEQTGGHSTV
Photoreceptor-specific nuclear receptor, sequence (Q9Y5X4 whole entry): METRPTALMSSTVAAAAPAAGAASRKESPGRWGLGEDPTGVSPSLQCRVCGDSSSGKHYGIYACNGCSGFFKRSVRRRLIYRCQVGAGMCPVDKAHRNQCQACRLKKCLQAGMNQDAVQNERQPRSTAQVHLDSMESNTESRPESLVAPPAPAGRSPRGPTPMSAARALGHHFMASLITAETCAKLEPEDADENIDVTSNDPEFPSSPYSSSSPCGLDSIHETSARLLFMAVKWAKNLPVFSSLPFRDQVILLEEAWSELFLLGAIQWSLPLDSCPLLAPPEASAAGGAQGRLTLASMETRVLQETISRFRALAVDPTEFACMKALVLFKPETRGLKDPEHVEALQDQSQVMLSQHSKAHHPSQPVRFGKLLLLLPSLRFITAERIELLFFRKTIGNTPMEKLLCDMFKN
Peroxisome proliferator-activated receptor gamma/Nuclear receptor corepressor 2, sequence (P37231 whole entry): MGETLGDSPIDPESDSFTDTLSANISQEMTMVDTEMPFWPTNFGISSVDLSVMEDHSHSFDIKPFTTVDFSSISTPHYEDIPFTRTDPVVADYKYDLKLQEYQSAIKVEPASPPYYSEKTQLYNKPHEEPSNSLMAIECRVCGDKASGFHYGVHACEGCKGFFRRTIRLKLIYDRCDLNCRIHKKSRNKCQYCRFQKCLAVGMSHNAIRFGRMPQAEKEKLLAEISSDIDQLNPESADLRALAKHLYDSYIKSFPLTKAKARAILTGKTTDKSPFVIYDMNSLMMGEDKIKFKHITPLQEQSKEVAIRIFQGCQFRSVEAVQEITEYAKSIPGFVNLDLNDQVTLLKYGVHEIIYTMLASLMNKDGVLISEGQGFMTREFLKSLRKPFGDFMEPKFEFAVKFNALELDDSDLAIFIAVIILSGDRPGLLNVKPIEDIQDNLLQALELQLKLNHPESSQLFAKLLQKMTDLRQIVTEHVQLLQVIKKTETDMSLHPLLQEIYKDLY
Peroxisome proliferator-activated receptor gamma/Nuclear receptor corepressor 2, sequence (Q9Y618 whole entry): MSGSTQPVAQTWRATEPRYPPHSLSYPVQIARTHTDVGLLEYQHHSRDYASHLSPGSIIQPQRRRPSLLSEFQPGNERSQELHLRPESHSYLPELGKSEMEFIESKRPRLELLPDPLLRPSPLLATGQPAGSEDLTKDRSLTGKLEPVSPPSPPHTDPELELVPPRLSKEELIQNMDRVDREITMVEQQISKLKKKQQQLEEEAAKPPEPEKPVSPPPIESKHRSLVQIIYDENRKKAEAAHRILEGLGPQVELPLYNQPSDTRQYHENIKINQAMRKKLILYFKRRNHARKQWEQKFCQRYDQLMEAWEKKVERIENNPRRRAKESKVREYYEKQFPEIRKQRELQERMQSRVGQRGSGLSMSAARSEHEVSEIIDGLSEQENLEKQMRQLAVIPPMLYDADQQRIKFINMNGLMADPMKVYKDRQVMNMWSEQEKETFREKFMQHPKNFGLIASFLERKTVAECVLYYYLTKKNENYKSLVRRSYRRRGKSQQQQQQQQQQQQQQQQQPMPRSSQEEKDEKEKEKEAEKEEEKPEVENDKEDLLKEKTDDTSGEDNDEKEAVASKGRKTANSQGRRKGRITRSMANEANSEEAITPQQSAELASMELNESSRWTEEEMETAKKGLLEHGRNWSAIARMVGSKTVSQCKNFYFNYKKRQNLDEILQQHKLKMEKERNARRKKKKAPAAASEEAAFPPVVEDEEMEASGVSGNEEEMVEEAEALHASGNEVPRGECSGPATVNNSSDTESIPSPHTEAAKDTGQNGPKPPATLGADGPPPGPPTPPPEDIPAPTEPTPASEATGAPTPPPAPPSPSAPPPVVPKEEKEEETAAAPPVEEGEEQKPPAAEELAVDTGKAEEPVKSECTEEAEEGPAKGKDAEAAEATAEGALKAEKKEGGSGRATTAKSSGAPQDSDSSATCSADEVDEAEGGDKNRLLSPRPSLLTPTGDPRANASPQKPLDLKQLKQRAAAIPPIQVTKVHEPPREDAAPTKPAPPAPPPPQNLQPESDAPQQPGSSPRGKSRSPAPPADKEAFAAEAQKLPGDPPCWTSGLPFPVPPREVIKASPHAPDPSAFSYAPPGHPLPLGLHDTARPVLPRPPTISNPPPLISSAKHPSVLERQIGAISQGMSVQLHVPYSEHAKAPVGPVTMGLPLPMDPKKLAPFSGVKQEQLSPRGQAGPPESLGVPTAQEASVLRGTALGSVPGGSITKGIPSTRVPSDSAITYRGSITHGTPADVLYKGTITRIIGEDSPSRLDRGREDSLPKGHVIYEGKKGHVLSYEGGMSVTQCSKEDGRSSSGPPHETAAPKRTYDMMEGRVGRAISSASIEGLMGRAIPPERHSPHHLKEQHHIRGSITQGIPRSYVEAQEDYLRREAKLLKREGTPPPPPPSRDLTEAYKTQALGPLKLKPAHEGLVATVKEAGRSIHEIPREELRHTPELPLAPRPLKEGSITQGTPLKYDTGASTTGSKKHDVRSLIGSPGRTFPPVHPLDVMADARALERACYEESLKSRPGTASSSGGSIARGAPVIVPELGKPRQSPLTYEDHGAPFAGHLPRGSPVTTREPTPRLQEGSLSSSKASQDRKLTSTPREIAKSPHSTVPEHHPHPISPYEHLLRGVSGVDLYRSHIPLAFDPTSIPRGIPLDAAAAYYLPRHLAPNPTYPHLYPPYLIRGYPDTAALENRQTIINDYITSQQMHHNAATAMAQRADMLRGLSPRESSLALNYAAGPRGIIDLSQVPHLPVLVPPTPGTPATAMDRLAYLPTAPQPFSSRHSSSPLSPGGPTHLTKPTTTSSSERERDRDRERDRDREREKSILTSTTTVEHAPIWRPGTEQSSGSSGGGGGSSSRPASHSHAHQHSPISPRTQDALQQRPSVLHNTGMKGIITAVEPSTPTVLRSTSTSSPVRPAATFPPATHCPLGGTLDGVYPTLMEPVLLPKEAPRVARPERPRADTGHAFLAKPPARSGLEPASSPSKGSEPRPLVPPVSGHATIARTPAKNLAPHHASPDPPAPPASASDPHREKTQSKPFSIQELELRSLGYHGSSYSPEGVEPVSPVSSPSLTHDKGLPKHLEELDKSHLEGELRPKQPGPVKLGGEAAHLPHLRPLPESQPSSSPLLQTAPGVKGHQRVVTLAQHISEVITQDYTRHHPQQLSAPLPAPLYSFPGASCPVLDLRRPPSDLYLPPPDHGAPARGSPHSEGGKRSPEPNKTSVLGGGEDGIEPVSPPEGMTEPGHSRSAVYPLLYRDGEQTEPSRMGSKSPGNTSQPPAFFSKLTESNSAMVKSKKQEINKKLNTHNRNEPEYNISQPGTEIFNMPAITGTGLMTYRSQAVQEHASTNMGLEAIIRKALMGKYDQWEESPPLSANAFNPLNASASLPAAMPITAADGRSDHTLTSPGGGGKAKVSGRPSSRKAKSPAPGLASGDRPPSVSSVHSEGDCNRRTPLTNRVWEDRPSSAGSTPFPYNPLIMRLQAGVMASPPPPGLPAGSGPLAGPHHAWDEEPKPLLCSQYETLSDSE
Beta-adrenergic receptor kinase 1, sequence (P25098 whole entry): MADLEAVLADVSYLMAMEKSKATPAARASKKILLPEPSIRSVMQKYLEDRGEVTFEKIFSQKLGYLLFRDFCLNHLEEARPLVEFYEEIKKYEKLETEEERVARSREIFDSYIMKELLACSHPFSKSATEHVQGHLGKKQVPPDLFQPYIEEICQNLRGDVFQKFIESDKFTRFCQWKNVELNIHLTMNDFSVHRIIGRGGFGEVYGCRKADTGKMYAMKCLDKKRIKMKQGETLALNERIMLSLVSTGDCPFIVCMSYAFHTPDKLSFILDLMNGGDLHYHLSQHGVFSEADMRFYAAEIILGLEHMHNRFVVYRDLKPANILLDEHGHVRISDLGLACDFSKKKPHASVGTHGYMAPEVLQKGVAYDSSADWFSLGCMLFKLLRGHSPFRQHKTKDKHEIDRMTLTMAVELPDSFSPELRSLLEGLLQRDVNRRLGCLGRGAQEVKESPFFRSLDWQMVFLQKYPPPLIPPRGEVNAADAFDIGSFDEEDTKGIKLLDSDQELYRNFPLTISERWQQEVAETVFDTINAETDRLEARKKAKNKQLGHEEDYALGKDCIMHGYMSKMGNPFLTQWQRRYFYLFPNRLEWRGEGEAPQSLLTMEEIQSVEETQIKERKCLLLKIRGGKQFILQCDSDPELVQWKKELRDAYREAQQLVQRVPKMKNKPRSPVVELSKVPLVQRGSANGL

SMILES: O=C(Nc1cccc(Cl)c1)Nc1cc(S(=O)(=O)N2CCCCC2)ccc1Cl
- EC50 [1]: 11.8 µM (active)
- AC50 [2]: > 11 µM (active)
- EC50 [3]: 4.59 µM (active)
- EC50 [4]: 26.6 µM (active)
- AC50 [5]: > 11 µM (active)
- EC50 [6]: > 60 µM (not active)
- AC50 [7]: 2.59 µM (active)
- AC50 [8]: 12 µM (active)
- EC50 [9]: 1.91 µM (active)

SMILES: CCOc1ccc(NC(=O)CCS(=O)(=O)c2ccc(Br)cc2)cc1
- IC50 [10]: 8.87 µM (active)
- IC50 [11]: > 66.6 µM (inactive)
- EC50 [12]: 0.277 µM (inactive)
- IC50 [13]: 12.8 µM (active)
- IC50 [14]: 13.6 µM (not active)

SMILES: O=c1c2cc(Cl)ccc2nc(/C=C/c2cccnc2)n1Cc1ccccc1
- IC50 [15]: > 80 µM (inactive)
- IC50 [16]: > 80 µM (inactive)
